This note sets out measurements from paper PMC4143292, “An Enzymatic Platform for the Synthesis of Isoprenoid Precursors” (PLoS ONE, 2014).

This test addresses T1, DPM-DC (diphosphomevalonate decarboxylase) (Streptococcus pneumoniae, UniProt A0A0H2UNP0).
T1 construct: gene mvaD; N-terminal His9-GST tag removed with PreScission protease; expressed in E. coli BL21(DE3)
T1 sequence (A0A0H2UNP0 1-317): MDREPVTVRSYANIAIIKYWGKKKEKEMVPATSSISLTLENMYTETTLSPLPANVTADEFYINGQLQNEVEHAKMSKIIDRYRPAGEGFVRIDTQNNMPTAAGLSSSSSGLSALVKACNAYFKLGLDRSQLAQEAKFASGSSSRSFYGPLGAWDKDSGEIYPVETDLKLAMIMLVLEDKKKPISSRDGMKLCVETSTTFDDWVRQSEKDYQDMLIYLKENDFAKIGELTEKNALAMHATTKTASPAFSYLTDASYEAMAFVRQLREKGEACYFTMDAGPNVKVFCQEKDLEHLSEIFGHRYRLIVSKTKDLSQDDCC
As to the kind of experiment: PK/LDH-coupled NADH oxidation. The format is biochemical. As to conditions: ATP 2.0 mM, MgCl2 1.0 mM + nucleotide, KCl 50 mM, Hepes pH 8.0, 25 C.

For the compound `C[C@@](O)(CCOP(=O)(O)OP(=O)(O)O)CC(=O)O` [DPM], the “PK/LDH-coupled NADH oxidation” value is “DPM formation was assayed by adding an aliquot the DPM-synthesis reaction into a DPM decarboxylase”.
